Target: T1, Human orexin receptor type 2 (Homo sapiens, UniProt O43614)
T1 construct: expressed in transfected cells; host or cells: CHO cells (transient expression)
T1 sequence (O43614 1-444): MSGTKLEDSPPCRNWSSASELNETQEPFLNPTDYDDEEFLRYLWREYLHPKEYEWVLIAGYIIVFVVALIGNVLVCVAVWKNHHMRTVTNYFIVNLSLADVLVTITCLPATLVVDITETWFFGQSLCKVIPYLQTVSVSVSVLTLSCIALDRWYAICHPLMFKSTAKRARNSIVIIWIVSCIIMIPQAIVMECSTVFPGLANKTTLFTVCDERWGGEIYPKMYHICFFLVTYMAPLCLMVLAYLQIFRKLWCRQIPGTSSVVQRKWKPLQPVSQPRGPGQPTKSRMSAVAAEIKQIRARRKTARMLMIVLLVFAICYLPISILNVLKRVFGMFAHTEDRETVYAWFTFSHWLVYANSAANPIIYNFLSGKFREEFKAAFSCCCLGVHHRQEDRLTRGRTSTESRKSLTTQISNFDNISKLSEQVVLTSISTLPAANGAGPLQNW
Test: Test 1: Evaluation of agonist activity for orexin receptor type 2 (aequorin luminescence, intracellular calcium mobilization in CHO cells)
Assay type: cell-based
Details: relative percentage of luminescence for the luminescence (100%) of Orexin A (100 pM); CHO cells transiently expressing human orexin receptor type 2 and apoaequorin; Orexin A Lot. 641114
Summary of the method: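 CHO cells transiently expressing human OX2 receptor and apoaequorin, seeded 16-22 h, loaded with 1 μM coelenterazine hcp for 2 h at room temperature. Compound added in Hanks/20 mM HEPES/0.1% BSA, 0.1% DMSO final, and calcium luminescence measured. Activity expressed as percent of the 100 pM Orexin A response.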

| Structure (SMILES) | agonist activity (%) |
| --- | --- |
| CC(C)N1CCN([C@H]2CCCC(F)(F)[C@@H]2NC(=O)N2CCC(C)(c3noc(C4CC4)n3)CC2)CC1 [Example 24, 4-(5-cyclopropyl-1,2,4-oxadiazol-3-yl)-N-{(1R,6S)-2,2-difluoro-6-[4-(propan-2-yl)piperazin-1-yl]cyclohexyl}-4-methylpiperidine-1-carboxamide] | 210% |
| CC(C)N1CCN([C@H]2CCCC(F)(F)[C@@H]2NC(=O)N2CCC(C)(c3cc(C4CC4)on3)CC2)CC1 [Example 25, 4-(5-cyclopropyl-1,2-oxazol-3-yl)-N-{(1R,6S)-2,2-difluoro-6-[4-(propan-2-yl)piperazin-1-yl]cyclohexyl}-4-methylpiperidine-1-carboxamide] | 165% |
| CC(C)N1CCN([C@H]2CCCC(F)(F)[C@@H]2NC(=O)N2CCC(C)(c3nsc(C4CC4)n3)CC2)CC1 [Example 43, 4-(5-cyclopropyl-1,2,4-thiadiazol-3-yl)-N-{(1R,6S)-2,2-difluoro-6-[4-(propan-2-yl)piperazin-1-yl]cyclohexyl}-4-methylpiperidine-1-carboxamide] | 146% |
| CC(C)N1CCN([C@H]2CCCC(F)(F)[C@@H]2NC(=O)N2CCC(C)(c3nnc(C4CC4)s3)CC2)CC1 [Example 44, 4-(5-cyclopropyl-1,3,4-thiadiazol-2-yl)-N-{(1R,6S)-2,2-difluoro-6-[4-(propan-2-yl)piperazin-1-yl]cyclohexyl}-4-methylpiperidine-1-carboxamide] | 148% |
| Cc1ccc(C2(C)CCN(C(=O)N[C@@H]3[C@@H](N4CCN(C(C)C)CC4)CCCC3(F)F)CC2)cc1 [Example 49, N-{(1R,6S)-2,2-difluoro-6-[4-(propan-2-yl)piperazin-1-yl]cyclohexyl}-4-methyl-4-(4-methylphenyl)piperidine-1-carboxamide] | 151% |
| Cc1ccc(C2(C)CCN(C(=O)N[C@@H]3[C@@H](N4CCN(C(C)C)CC4)CCCC3(F)F)CC2)c(F)c1 [Example 56, N-{(1R,6S)-2,2-difluoro-6-[4-(propan-2-yl)piperazin-1-yl]cyclohexyl}-4-(2-fluoro-4-methylphenyl)-4-methylpiperidine-1-carboxamide] | 140% |
| CC(C)N1CCN([C@H]2CCCC(F)(F)[C@@H]2NC(=O)N2CCC(C)(c3nsc(OC4CC4)n3)CC2)CC1 [Example 57, 4-[5-(cyclopropyloxy)-1,2,4-thiadiazol-3-yl]-N-{(1R,6S)-2,2-difluoro-6-[4-(propan-2-yl)piperazin-1-yl]cyclohexyl}-4-methylpiperidine-1-carboxamide] | 155% |
| Cc1ccc(C2(C)CCN(C(=O)N[C@@H]3[C@@H](N4CCN(C(C)C)CC4)CCCC3(F)F)CC2)c(C#N)c1 [Example 60, 4-(2-cyano-4-methylphenyl)-N-{(1R,6S)-2,2-difluoro-6-[4-(propan-2-yl)piperazin-1-yl]cyclohexyl}-4-methylpiperidine-1-carboxamide] | 151% |
| Cc1ccc(C2(C)CCN(C(=O)N[C@@H]3[C@@H](N4CC5CC(C4)N5C(C)C)CCCC3(F)F)CC2)cc1 [Example 61, N-{(1R,6S)-2,2-difluoro-6-[6-(propan-2-yl)-3,6-diazabicyclo[3.1.1]heptan-3-yl]cyclohexyl}-4-methyl-4-(4-methylphenyl)piperidine-1-carboxamide] | 169% |
| CC(C)N1CC2CCC(C1)N2[C@H]1CCCC(F)(F)[C@@H]1NC(=O)N1CCC(C)(c2noc(C3CC3)n2)CC1 [Example 62, 4-(5-cyclopropyl-1,2,4-oxadiazol-3-yl)-N-{(1R,6S)-2,2-difluoro-6-[3-(propan-2-yl)-3,8-diazabicyclo[3.2.1]octan-8-yl]cyclohexyl}-4-methylpiperidine-1-carboxamide] | 174% |
| Cc1ccc(C2(C)CCN(C(=O)N[C@@H]3[C@@H](N4C5CCC4CN(C(C)C)C5)CCCC3(F)F)CC2)cc1 [Example 63, N-{(1R,6S)-2,2-difluoro-6-[3-(propan-2-yl)-3,8-diazabicyclo[3.2.1]octan-8-yl]cyclohexyl}-4-methyl-4-(4-methylphenyl)piperidine-1-carboxamide] | 149% |
| CC(C)N1CC[C@@H](O[C@H]2CCCC(F)(F)[C@@H]2NC(=O)N2CCC(C)(c3noc(C4CC4)n3)CC2)C1 [Example 64, 4-(5-cyclopropyl-1,2,4-oxadiazol-3-yl)-N-[(1R,6S)-2,2-difluoro-6-{[(3R)-1-(propan-2-yl)pyrrolidin-3-yl]oxy}cyclohexyl]-4-methylpiperidine-1-carboxamide] | 204% |
| CC(C)N1CC2CCC(C1)N2[C@H]1CCCC(F)(F)[C@@H]1NC(=O)N1CCC(C)(c2cc(C3CC3)on2)CC1 [Example 65, 4-(5-cyclopropyl-1,2-oxazol-3-yl)-N-{(1R,6S)-2,2-difluoro-6-[3-(propan-2-yl)-3,8-diazabicyclo[3.2.1]octan-8-yl]cyclohexyl}-4-methylpiperidine-1-carboxamide] | 155% |
| CC(C)N1CCN([C@H]2CCCC(F)(F)[C@@H]2NC(=O)N2CCC(C)(c3noc([C@@H]4C[C@@H]4F)n3)CC2)CC1 [Example 66, N-{(1R,6S)-2,2-difluoro-6-[4-(propan-2-yl)piperazin-1-yl]cyclohexyl}-4-{5-[(1S,2S)-2-fluorocyclopropyl]-1,2,4-oxadiazol-3-yl}-4-methylpiperidine-1-carboxamide] | 144% |
| Cc1ccc(C2(C)CCN(C(=O)N[C@@H]3[C@@H](O[C@@H]4CCN(C(C)C)C4)CCCC3(F)F)CC2)cc1 [Example 67, N-[(1R,6S)-2,2-difluoro-6-{[(3R)-1-(propan-2-yl)pyrrolidin-3-yl]oxy}cyclohexyl]-4-methyl-4-(4-methylphenyl)piperidine-1-carboxamide] | 175% |
| CC(C)N1CCN([C@H]2CCCC(F)(F)[C@@H]2NC(=O)N2CCC(C)(c3noc([C@H]4C[C@H]4C)n3)CC2)CC1 [Example 68, N-{(1R,6S)-2,2-difluoro-6-[4-(propan-2-yl)piperazin-1-yl]cyclohexyl}-4-methyl-4-{5-[(1S,2R)-2-methylcyclopropyl]-1,2,4-oxadiazol-3-yl}piperidine-1-carboxamide] | 156% |
| CC(C)N1CCN([C@H]2CCCC(F)(F)[C@@H]2NC(=O)N2CCC(C)(c3noc([C@@H]4C[C@@H]4C)n3)CC2)CC1 [Example 69, N-{(1R,6S)-2,2-difluoro-6-[4-(propan-2-yl)piperazin-1-yl]cyclohexyl}-4-methyl-4-{5-[(1R,2S)-2-methylcyclopropyl]-1,2,4-oxadiazol-3-yl}piperidine-1-carboxamide] | 161% |
| CC(C)N1CCN([C@H]2CCCC(F)(F)[C@@H]2NC(=O)N2CCC(C)(c3noc(CC(F)(F)F)n3)CC2)CC1 [Example 70, N-{(1R,6S)-2,2-difluoro-6-[4-(propan-2-yl)piperazin-1-yl]cyclohexyl}-4-methyl-4-[5-(2,2,2-trifluoroethyl)-1,2,4-oxadiazol-3-yl]piperidine-1-carboxamide] | 141% |
| CC(C)N1CC[C@H](O[C@H]2CCCC(F)(F)[C@@H]2NC(=O)N2CCC(C)(c3noc(C4CC4)n3)CC2)C1 [Example 71, 4-(5-cyclopropyl-1,2,4-oxadiazol-3-yl)-N-[(1R,6S)-2,2-difluoro-6-{[(3S)-1-(propan-2-yl)pyrrolidin-3-yl]oxy}cyclohexyl]-4-methylpiperidine-1-carboxamide] | 199% |
| CC(C)N1CC[C@H](O[C@H]2CCCC(F)(F)[C@@H]2NC(=O)N2CCC(C)(c3noc([C@@H]4C[C@@H]4F)n3)CC2)C1 [Example 72, N-[(1R,6S)-2,2-difluoro-6-{[(3S)-1-(propan-2-yl)pyrrolidin-3-yl]oxy}cyclohexyl]-4-{5-[(1S,2S)-2-fluorocyclopropyl]-1,2,4-oxadiazol-3-yl}-4-methylpiperidine-1-carboxamide] | 146% |
| CC(C)N1CC[C@@H](O[C@H]2CCCC(F)(F)[C@@H]2NC(=O)N2CCC(C)(c3noc([C@@H]4C[C@@H]4F)n3)CC2)C1 [Example 73, N-[(1R,6S)-2,2-difluoro-6-{[(3R)-1-(propan-2-yl)pyrrolidin-3-yl]oxy}cyclohexyl]-4-{5-[(1S,2S)-2-fluorocyclopropyl]-1,2,4-oxadiazol-3-yl}-4-methylpiperidine-1-carboxamide] | 185% |
| CC(C)N1CC[C@H](O[C@H]2CCCC(F)(F)[C@@H]2NC(=O)N2CCC(C)(c3noc([C@@H]4C[C@@H]4C)n3)CC2)C1 [Example 74, N-[(1R,6S)-2,2-difluoro-6-{[(3S)-1-(propan-2-yl)pyrrolidin-3-yl]oxy}cyclohexyl]-4-methyl-4-(5-[(1R,2S)-2-methylcyclopropyl]-1,2,4-oxadiazol-3-yl)piperidine-1-carboxamide] | 174% |
